Laboratory results from US20140194531A1, “HYDROXYTYROSOL BENEFITS MITOCHONDRIA” (DSM IP Assets B.V., priority 2008, published 2014).

How the values were obtained:
PGC-1α = PGC-1α protein level in adipocytes (Western blot); format: cell-based, murine; conditions: 3T3-L1 adipocytes, 1.0 μM, maximum, p<0.05 vs. control
Procedure: Murine 3T3-L1 pre-adipocytes (American Type Culture Collection) were cultured in Dulbecco's Modified Eagle's Medium (DMEM) supplemented with 10% fetal bovine serum and allowed to reach confluence. Differentiation of pre-adipocytes was initiated with 1 μM insulin, 0.25 μM dexamethasone and 0.5 mM 3-isobutyl-1-methylxanthine in DMEM, supplemented with 10% fetal bovine serum. After 48 h, the culture medium was replaced with DMEM supplemented with 10% fetal bovine serum and 1 μM insulin. The culture medium was changed every other day with DMEM containing 10% fetal bovine serum. […] After treatment, cells were washed twice with ice-cold PBS, lysed in sample buffer (62.5 mM Tris-Cl pH 6.8, 2% SDS, 5 mM DTT) at room temperature and vortexed. Cell lysates were then boiled for 5 minutes and cleared by centrifugation (13,000 rpm, 10 minutes at 4° C.). Protein concentration was determined using the Bio-Rad DC protein assay. The soluble lysates (10 μg per lane) were subjected to 10% SDS-PAGE, proteins were then transferred to nitrocellulose membranes and blocked with 5% non-fat milk/TBST for 1 h at room temperature. […] Western blots were developed using ECL (Roche Manheim, Germany) and quantified by scanning densitometry.

mice (C57BL/6NCrl) = assay: Maximal running performance on a treadmill (endurance); format: in vivo; conditions: olive extract containing 50% hydroxytyrosol, 50, 150 or 300 mg/kg body weight per day by gavage, 3 weeks
Excerpt: The purpose of the study was to determine the effect of hydroxytyrosol on maximal running performance on a treadmill.
In short, forty mice (C57BL/6NCrl; 8 wks old) were purchased from Charles River (Sulzfeld, Germany) and housed individually with free access to water and feed, with an alternating 12-hour light-dark cycle. The animals were fed a standard rodent diet (Ssniff R/M-H, Ext. n° V1536, Ssniff Ltd., Soest, Germany). After 2 weeks of adaptation to the diet the mice were randomized according to body weight into four experimental groups of 10 animals. The four groups were treated orally every morning for 3 weeks with either water (control group) or with an olive extract diluted to 0.2 ml with water and containing 50% hydroxytyrosol at doses of 50, 150, or 300 mg/kg body weight per day. There was no difference in feed consumption over the whole experiment. After 3 weeks of treatment the maximal running distance on a treadmill was measured. Statistical significance of the mean differences between dietary groups was tested by one-way analysis of variance (ANOVA). If significant differences were found, the Dunnett's test for multiple comparison was used to compare each group to the control group. P values less than 0.05 were considered significant.

[1] = test system: mitochondrial electron transport complex I; assay: Mitochondrial complex I protein expression in adipocytes (Western blot); format: cell-based, murine; conditions: 3T3-L1 adipocytes, 48 hrs
Procedure: Murine 3T3-L1 pre-adipocytes (American Type Culture Collection) were cultured in Dulbecco's Modified Eagle's Medium (DMEM) supplemented with 10% fetal bovine serum and allowed to reach confluence. Differentiation of pre-adipocytes was initiated with 1 μM insulin, 0.25 μM dexamethasone and 0.5 mM 3-isobutyl-1-methylxanthine in DMEM, supplemented with 10% fetal bovine serum. After 48 h, the culture medium was replaced with DMEM supplemented with 10% fetal bovine serum and 1 μM insulin. The culture medium was changed every other day with DMEM containing 10% fetal bovine serum. […] After treatment, cells were washed twice with ice-cold PBS, lysed in sample buffer (62.5 mM Tris-Cl pH 6.8, 2% SDS, 5 mM DTT) at room temperature and vortexed. Cell lysates were then boiled for 5 minutes and cleared by centrifugation (13,000 rpm, 10 minutes at 4° C.). Protein concentration was determined using the Bio-Rad DC protein assay. The soluble lysates (10 μg per lane) were subjected to 10% SDS-PAGE, proteins were then transferred to nitrocellulose membranes and blocked with 5% non-fat milk/TBST for 1 h at room temperature. Membranes were incubated with primary antibodies directed against PPAR-y (1:1000), PGC-1α (1:1000), α-tubulin (1:10 000), Complex I (1:2000), Complex II (1:2000), Complex III (1:2000) and Complex V (1:2000) in 5% milk/TBST at 4° C. overnight. After washing membranes with TBST three times, membranes were incubated with horseradish peroxidase-conjugated secondary antibody for 1 h at room temperature. Western blots were developed using ECL (Roche Manheim, Germany) and quantified by scanning densitometry.

OCCc1ccc(O)c(O)c1 [hydroxytyrosol, 3,4-dihydroxyphenylethanol]
PGC-1α protein expression (PGC-1α:α-tubulin ratio, vs. control) (PGC-1α): 205±52%
increase of endurance (mice (C57BL/6NCrl)): up to 50%
mitochondrial electron transport complex I protein (vs. control) ([1]; 0.1 μM, p<0.05): 131±16%
mitochondrial electron transport complex I protein (vs. control) ([1]; 1.0 μM, p<0.01): 163±31%
mitochondrial electron transport complex I protein (vs. control) ([1]; 10.0 μM, p<0.05): 138±21%
